According to patent US5597845A, “Substituted alkyldiamine derivatives” (Merrell Pharmaceuticals Inc., priority 1994, dated 1997):

What was measured:
[1] = target: T1, human jejunal NK2 receptor (Homo sapiens, UniProt P21452); experiment: Antagonism of iodinated tachykinin binding: NK2 receptor affinity in HSKR-1 cells (125 iodohistidyl-1-neurokinin A); details: HSKR-1 cells (mouse 3T3 fibroblasts expressing human jejunal NK2 receptor); 125I-neurokinin A 0.1 nM; 2 hr room temperature; mean of several experiments
T1 construct: expressed in transfected cells; host or cells: HSKR-1 cells (mouse 3T3 fibroblasts)
T1 sequence (P21452 1-398): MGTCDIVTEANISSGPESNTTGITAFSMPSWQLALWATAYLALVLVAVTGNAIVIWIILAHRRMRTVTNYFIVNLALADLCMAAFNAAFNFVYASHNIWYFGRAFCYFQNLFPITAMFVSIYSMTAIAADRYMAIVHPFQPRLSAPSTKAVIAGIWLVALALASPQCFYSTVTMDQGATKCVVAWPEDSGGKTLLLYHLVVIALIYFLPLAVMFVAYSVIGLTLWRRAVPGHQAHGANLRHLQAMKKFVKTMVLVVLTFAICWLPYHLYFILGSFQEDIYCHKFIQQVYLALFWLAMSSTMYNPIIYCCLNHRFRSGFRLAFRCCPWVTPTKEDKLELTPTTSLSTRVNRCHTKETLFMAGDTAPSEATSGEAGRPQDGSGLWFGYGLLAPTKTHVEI
Description: (§1) The NK1 receptor affinity of proposed tachykinin antagonists was evaluated in guinea pig lungs (Keystone Biologicals, Cleveland, Ohio) and affinity for the NK2 receptor evaluated in HSKR-1 cells (which are mouse 3T3 fibroblasts expressing the human jejunal NK2 receptor). Tissues or cells were homogenized with a Polytron in 15 volumes of 50 mM Tris-HCl buffer (pH 7.4, 4° C.) and centrifuged. The pellet was resuspended in Tris-HCl buffer and was centrifuged; the pellet was washed twice by resuspension. The final pellet was resuspended at a concentration of 40 mg/ml for tissues and 20 mg/ml for cells in incubation buffer and remained at room temperature for at least 15 min prior to use. Receptor binding was initiated by addition of 250 ul membrane preparation in duplicate to 0.1 nM of the following radioligands: ^125 I-Bolton Hunter Lys-3 labeled substance P and ^125 iodohistidyl-1-neurokinin A; in a final volume of 500 ul of buffer containing 50 mM Tris-HCl (pH 7.4 at room temperature), 0.1% bovine serum albumin, 2 mM MnCl2, 40 ug/ml bacitracin, 4 μg/ml leupeptin and chymostatin, 1 μM thiorphan and various doses of the putative tachykinin antagonists. Incubations were performed at room temperature for 90 min (NK1 receptor assays) or 2 hr (NK2 receptor assay); binding was terminated by addition of 50 mM Tris-HCl buffer (pH 7.4, 4° C.) and filtration under vacuum through GF/B filters presoaked with 0.1% polyethyleneimine (NK, receptor assays) or 0.5% bovine serum albumin (NK2 receptor assay). Filter bound radioactivity was quantitated in a gamma counter. Nonspecific binding was defined as binding in the presence of 1 μM substance P or neurokinin A. Specific binding was calculated by subtracting nonspecific binding from total binding. Competition of iodinated SP or NKA binding by test compounds or standards was expressed as a percentage of this maximum competition. IC50 values (concentration required to inhibit 50% of receptor binding) were generated for each of the test compounds by nonlinear regression using an iterative curve fitting program (GraphPAD Inplot, San Diego, Calif.).
(§2) IC50 values for some of the compounds of the present invention are found in Table 1 and represent the mean of several experiments.

NK1 receptor = target: T2, NK1 receptor (Cavia porcellus, UniProt P30547); experiment: Antagonism of iodinated tachykinin binding: NK1 receptor affinity in guinea pig lungs (125I-Bolton Hunter Lys-3 labeled substance P); details: 125I-substance P 0.1 nM, 90 min room temperature, mean of several experiments
T2 construct: evaluated in guinea pig lungs; tissue Keystone Biologicals, Cleveland, Ohio; host or cells: guinea pig lung
Description: as §1, §2

T2 sequence (P30547 whole entry): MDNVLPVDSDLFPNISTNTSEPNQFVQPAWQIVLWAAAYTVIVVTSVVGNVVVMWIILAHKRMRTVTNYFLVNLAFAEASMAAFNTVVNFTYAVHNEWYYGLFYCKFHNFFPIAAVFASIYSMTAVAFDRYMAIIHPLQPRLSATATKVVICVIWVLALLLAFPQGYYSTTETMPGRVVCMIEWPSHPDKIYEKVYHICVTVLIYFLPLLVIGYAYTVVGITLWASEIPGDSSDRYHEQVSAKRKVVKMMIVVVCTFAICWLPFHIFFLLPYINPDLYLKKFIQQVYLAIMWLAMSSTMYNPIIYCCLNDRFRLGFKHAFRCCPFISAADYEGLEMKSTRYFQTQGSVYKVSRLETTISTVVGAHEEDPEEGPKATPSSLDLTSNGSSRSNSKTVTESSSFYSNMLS

SMILES	IC50 [1]	IC50 (NK1 receptor)
CC(Cc1c[nH]c2ccccc12)NCCN[C@@H](Cc1ccccc1)C(=O)N(C)Cc1ccccc1 (mixture of isomers) [Compound No. 11, (S)-N-Benzyl-N-methyl-2-[[(R and S)-2-(1H-indol-3-yl)-1-methyl-ethylamino]-ethylamino]-3-phenyl-propionamide]	131 nM	953 nM
COC(=O)[C@H](Cc1c[nH]c2ccccc12)NCCN[C@@H](Cc1ccc2ccccc2c1)C(=O)N(C)Cc1ccc(Cl)c(Cl)c1 [Compound No. 2, (S)-N-(3,4-Dichlorobenzyl)-N-methyl-2-[[(S)-2-(1H-indol-3-yl)-1-carboxymethyl-ethylamino]-ethylamino]-3-(naphth-2-yl)-propionamide]	632 nM	61.5 nM
COC(=O)[C@@H](Cc1c[nH]c2ccccc12)NCCN[C@@H](Cc1ccccc1)C(=O)N(C)Cc1ccccc1 [Compound No. 3, (S)-N-Benzyl-N-methyl-2-[[(R)-2-(1H-indol-3-yl)-1-carboxymethyl-ethylamino]-ethylamino]-3-phenyl-propionamide]	215 nM	929 nM
COC(=O)[C@H](Cc1c[nH]c2ccccc12)NCCN[C@@H](Cc1ccccc1)C(=O)N(C)Cc1ccccc1OC [Compound No. 4, (S)-N-(2-Methoxybenzyl)-N-methyl-2-[[(S)-2-(1H-indol-3-yl)-1-carboxymethyl-ethylamino]-ethylamino]-3-phenyl-propionamide]	271 nM	146 nM
COC(=O)[C@H](Cc1c[nH]c2ccccc12)NCCN[C@@H](Cc1ccc2ccccc2c1)C(=O)N(C)Cc1ccccc1 [Compound No. 5]	284 nM	78.1 nM
COC(=O)[C@H](Cc1c[nH]c2ccccc12)NCCN[C@@H](Cc1ccccc1)C(=O)N(C)Cc1ccccc1 [Compound No. 6, (S)-N-Benzyl-N-methyl-2-[[(S)-2-(1H-indol-3-yl)-1-carboxymethyl-ethylamino]-ethylamino]-3-phenyl-propionamide]	228 nM	294 nM
CN(Cc1ccccc1)C(=O)[C@H](Cc1ccccc1)NCCN[C@@H](Cc1c[nH]c2ccccc12)C(N)=O [Compound No. 7, (S)-N-Benzyl-N-methyl-2-[[(S)-2-(1H-indol-3-yl)-1-carboxylic acid amide-ethylamino]-ethylamino]-3-phenyl-propionamide]	211 nM	472 nM
COC(=O)[C@H](Cc1c[nH]c2ccccc12)NCCN[C@@H](Cc1ccccc1)C(=O)N(C)Cc1cc(OC)c(OC)c(OC)c1 [Compound No. 8, (S)-N-(3,4,5-Trimethoxybenzyl)-N-methyl-2-[[(S)-2-(1H-indol-3-yl)-1-carboxymethyl-ethylamino]ethylamino]-3-phenyl-propionamide]	1990 nM	711 nM
CN(Cc1ccccc1)C(=O)[C@H](Cc1ccccc1)NCCNCCc1c[nH]c2ccccc12 [Compound No. 9]	114 nM	778 nM
COC(=O)[C@H](Cc1c[nH]c2ccccc12)NCCN[C@@H](Cc1ccccc1)CN(C)C(=O)c1cc(OC)c(OC)c(OC)c1 [Compound No. 10, N-Methyl-N-[(S)-2-[[(S)-2-(1H-indol-3-yl)-1-carboxymethyl-ethylamino]-ethylamino]-3-phenyl-propyl]-(3,4,5-trimethoxy)benzamide]	2560 nM	631 nM
COC(=O)[C@H](Cc1ccccc1)NCCN[C@@H](Cc1ccccc1)C(=O)N(C)Cc1ccccc1 [Compound No. 12, (S)-N-Benzyl-N-methyl-2-[[(S)-2-phenyl-1-carboxymethyl-ethylamino]-ethylamino]-3-phenyl-propionamide]	1440 nM	1430 nM
COC(=O)[C@@H](NCCN[C@@H](Cc1ccccc1)C(=O)N(C)Cc1ccccc1)c1ccccc1 [Compound No. 13, (S)-N-Benzyl-N-methyl-2-[[(S)-1-phenyl-1-carboxymethyl-methylamino]-ethylamino]-3-phenyl-propionamide]	4710 nM	2410 nM
COC(=O)[C@H](Cc1c[nH]c2ccccc12)NCCN[C@@H](Cc1ccccc1)CN(C)C(=O)c1ccccc1 [Compound No. 14, N-Methyl-N-[(S)-2-[[(S)-2-(1H-indol-3-yl)-1-carboxymethyl-ethylamino]-ethylamino]-3-phenyl-propyl]-benzamide]	1220 nM	10000 nM
COC(=O)[C@H](Cc1c[nH]c2ccccc12)NCCN(C(=O)OC(C)(C)C)[C@@H](Cc1ccc2ccccc2c1)C(=O)N(C)Cc1ccccc1 [Compound No. 15, (S)-N-Benzyl-N-methyl-2-[[(S)-2-(1H-indol-3-yl)-1-carboxymethyl-ethylamino]-N'-(t-butoxycarbonyl)ethylamino]-3-(naphth-2-yl)-propionamide]	2560 nM	> 10000 nM
CN(Cc1ccccc1)C(=O)[C@H](Cc1ccccc1)NCCN[C@@H](Cc1c[nH]c2ccccc12)C(=O)O [Compound No. 16, (S)-N-Benzyl-N-methyl-2-[[(S)-2-(1H-indol-3-yl)-1-carboxy-ethylamino]-ethylamino]-3-phenyl-propionamide]	1580 nM	3800 nM
